ChEMBL document CHEMBL4017472, “New modified 2-aminobenzimidazole nucleosides: Synthesis and evaluation of their activity against herpes simplex virus type 1” (Bioorg Med Chem Lett, 2017)

Key:
[1] = Selectivity index, ratio of MCC for African green monkey Vero E6 cells to IC50 for HSV-1 F+ infected in African green monkey Vero E6 cells; parameters: species or system Vero C1008
Human alphaherpesvirus 1 [2] = assay: Antiviral activity against HSV1 L2 infected in African green monkey Vero E6 cells assessed as reduction in virus-induced cytopathic effect; format: functional; settings: Human alphaherpesvirus 1, L2, Vero C1008
Human alphaherpesvirus 1 [3] = assay: Antiviral activity against acyclovir and cidofovir-resistant HSV-1 L2 infected in African green monkey Vero E6 cells assessed as inhibition of viral reproduction measured after 48 hrs post infection by gentian violet staining based plaque reduction assay; format: functional; settings: Vero C1008
Human alphaherpesvirus 1 [4] = assay: Potency index, ratio of maribavir IC50 to compound IC50 for HSV-1 L2 infected in African green monkey Vero E6 cells; format: functional, Vero C1008
Human alphaherpesvirus 1 [5] = assay: Antiviral activity against HSV-1 L2/Rp-ACV/2 infected in African green monkey Vero E6 cells assessed as viral reproduction at 207 uM measured after 48 hrs post infection by gentian violet staining based plaque reduction assay (reference value: 6.05 +/- 0.1 log10PFU/ml); format: functional, Vero C1008
Human alphaherpesvirus 1 [6] = assay: Antiviral activity against acyclovir and foscarnet-resistant HSV-1 L2 infected in African green monkey Vero E6 cells assessed as reduction in virus-induced cytopathic effect; format: functional; settings: Human alphaherpesvirus 1, L2, Vero C1008
Human alphaherpesvirus 1 [7] = assay: Antiviral activity against HSV-1 L2/Rp-ACV/2 infected in African green monkey Vero E6 cells assessed as viral reproduction at 104 uM measured after 48 hrs post infection by gentian violet staining based plaque reduction assay (reference value: 6.05 +/- 0.1 log10PFU/ml); format: functional, Vero C1008
Human alphaherpesvirus 1 [8] = assay: Antiviral activity against HSV-1 L2/Rp-ACV/2 infected in African green monkey Vero E6 cells assessed as inhibition of viral reproduction measured after 48 hrs post infection by gentian violet staining based plaque reduction assay; format: functional; settings: Vero C1008
Human alphaherpesvirus 1 [9] = assay: Antiviral activity against HSV-1 L2 infected in African green monkey Vero E6 cells assessed as viral reproduction at 207 uM measured after 48 hrs post infection by gentian violet staining based plaque reduction assay (reference value: 6.91 +/- 0.05 log10PFU/ml); format: functional, Vero C1008
Human alphaherpesvirus 1 [10] = assay: Antiviral activity against HSV-1 L2/Rp-ACV/2 infected in African green monkey Vero E6 cells assessed as reduction in virus-induced cytopathic effect; format: functional; settings: Human alphaherpesvirus 1, L2/Rp-ACV/2, Vero C1008
[11] = Selectivity index, ratio of MCC for African green monkey Vero E6 cells to IC50 for HSV-1 L2 infected in African green monkey Vero E6 cells; parameters: species or system Vero C1008
Human alphaherpesvirus 1 [12] = assay: Antiviral activity against HSV-1 L2 infected in African green monkey Vero E6 cells assessed as viral reproduction at 104 uM measured after 48 hrs post infection by gentian violet staining based plaque reduction assay (reference value: 6.91 +/- 0.05 log10PFU/ml); format: functional, Vero C1008
Human alphaherpesvirus 1 [13] = assay: Antiviral activity against foscarnet-resistant HSV-1 F+ infected in African green monkey Vero E6 cells assessed as reduction in virus-induced cytopathic effect; format: functional; settings: Human alphaherpesvirus 1, F+, Vero C1008

Q: Which “Selectivity Index” value [1] does the source give for `Nc1nc2cc(F)c(F)cc2n1[C@@H]1O[C@H](CO)[C@@H](O)[C@H]1O` here?
A: Its value is greater than 16.

Q: What about the IC50 (Human alphaherpesvirus 1 [2]) of the same compound?
A: The IC50 was 104 µM.

Q: What about the IC95 (Human alphaherpesvirus 1 [2]) of the same compound?
A: Its IC95 is 830 µM.

Q: And the inhibition (Human alphaherpesvirus 1 [3])?
A: Its inhibition is “Dose-dependent effect”.

Q: And the “Ratio IC50” value (Human alphaherpesvirus 1 [4])?
A: The value was 8.

Q: And the Activity (Human alphaherpesvirus 1 [5])?
A: Its Activity is 4.55 log10PFU/ml.

Q: What about the IC50 (Human alphaherpesvirus 1 [6]) of the same compound?
A: Its IC50 is 208 µM.

Q: What about the IC95 (Human alphaherpesvirus 1 [6]) of the same compound?
A: Its IC95 is 830 µM.

Q: And the Activity (Human alphaherpesvirus 1 [7])?
A: The Activity was 4.76 log10PFU/ml.

Q: And the inhibition (Human alphaherpesvirus 1 [8])?
A: The inhibition was “Dose-dependent effect”.

Q: And the Activity (Human alphaherpesvirus 1 [9])?
A: The Activity was 5.16 log10PFU/ml.

Q: And the IC50 (Human alphaherpesvirus 1 [10])?
A: Its IC50 is 104 µM.

Q: And the IC95 (Human alphaherpesvirus 1 [10])?
A: Its IC95 is 830 µM.

Q: What about the “Selectivity Index” value [11] of the same compound?
A: Its value is greater than 32.

Q: What about the Activity (Human alphaherpesvirus 1 [12]) of the same compound?
A: Its Activity is 5.63 log10PFU/ml.

Q: And the IC50 (Human alphaherpesvirus 1 [13])?
A: Its IC50 is 208 µM.

Q: And the IC95 (Human alphaherpesvirus 1 [13])?
A: Its IC95 is 830 µM.
